Common to all, as to format: cell-based, human
Data set [1] deals with TNFα. The data set is described as follows: Inhibition of TNFα production in LPS-stimulated THP-1 cells (ELISA). The conditions noted are these: for inhibition at 10 µg/mL / inhibition at 100 µg/mL / IC50: Homo sapiens; for inhibition at 10 µg/mL: 10 μg/mL; for inhibition at 10 µg/mL / inhibition at 100 µg/mL: THP-1, 6 h post-stimulation (FIG. 2), read-out: percent inhibition of TNFα production; for inhibition at 100 µg/mL: 100 μg/mL; for IC50: Table 2, LPS-stimulated THP-1, 6 h post-stimulation. As to the method:
Cell line. THP-1 cells (human monocyte) were maintained in RPMI 1640 medium containing 25 mM Hepes buffer, 2 mM L-glutamine, 50 units of penicillin per mL, 50 μg of streptomycin sulfate per mL, and 10% heat-inactivated fetal bovine serum (FBS) in a humidified incubator containing 5% CO2. The cells were split 1:4 weekly as recommended by the American Type Culture Collection (ATCC).
TNFα assay. Varying concentrations of the test compound or control compound were added to THP-1 cells plated at a density of 1×10^6cells/mL in 600 μL of 10% RPMI in a 48 well plate. After one hour the cells were stimulated with 0.5 μg of lipopolysaccharide (LPS; Sigma, lot number 43H40491) per mL. Six hours post-stimulation supernatants were collected and assayed for TNFα or IL-1β production using a commercially available cytokine detection ELISA (Enzyme Linked Immunosorbent Assay) kit according to the suppliers instructions. A suitable assay kit may be obtained from Biosource, or R and D systems. A novel xanthine analog, HWA-3138, having the structure (as shown below) was used as the control compound (30) in this study to monitor the response of the THP-l cells. Xanthine analogs are known inhibitors of TNFα but not IL-1β. In the following experiments compound HWA-3138 was used as a positive control. [drawing 58]
Time of Addition. Varying concentrations of test or control compounds were added to THP-1 cells (1×10^6 cells/mL) at different time points post-stimulation using 0.5 μg of LPS (Sigma, lot number 43H40491) per mL in 300 μL of 10% RPMI in a 48 well plate. Six hours post-stimulationsupernatants were collected and assayed for TNFα or IL-1β production using a Biosource cytokine detection ELISA (Enzyme Linked Immunosorbent Assay) kit according to the supplier's instructions.
The membrane bound TNFα was separated from the free TNFα in the culture medium at 6 hours post-LPS stimulation as follows: The corresponding cells were centrifuged at 3500 rpm (~1,000×g) for 6 min. The supernatants were removed and the cell pellets were then resuspended in 200 μL of 0.25 mM Tris-HCl (pH 7.4). The cell associated TNFα was prepared by freezing the cell suspension in dry ice/ethanol and thawing at 37° C. three times with Vortexing in-between freeze-thaw cycles. Each cycle was 4-5 min apart.
To determine the long-term effects of phosphazole compound T70241 on TNFα production after a single treatment, THP-1 cells were pre-incubated with T70241, washed and resuspended in drug free medium. The xanthine analog HWA-3138 was used as a control.

The subject of the next data set is THP-1 cells. The data set is described as follows: Cytotoxicity on growing THP-1 cells (MTS assay). The conditions noted are these: 4 days (FIG. 1A). As to the method: Cytotoxicity Analysis. The cytotoxicity of the compounds were assayed using the CellTiter 96™ Aqueous Non-Radioactive Cell Proliferation (MTS) Assay kit obtained from Promega (Madison, Wis.) following the instructions provided by the supplier. The viable cell number was determined by trypan blue staining and cells (THP-1) were resuspended in PRMI supplemented with 10% FBS (GIBCO). Eighty microliters of cell suspension (1.7×10^4cells/well) was dispensed onto a 96-well microtiter plates. At this time 20 μL of drug (or control) was added to appropriate wells. Each concentration was assayed in quadruplicate. The plates were incubated at 37° C. in a humidified 5% CO2 atmosphere for 4 days and MTS assay […] for each concentration and the data obtained was used to calculate TC50 (the concentration of the compound necessary to inhibit the cell growth by 50%) for each compound.

Data set [2] has as its system TNFα. The data set is described as follows: Inhibition of TNFα in LPS-stimulated PBMCs. The conditions noted are these: for inhibition at 10 µg/mL / inhibition at 50 µg/mL / inhibition at 100 µg/mL / inhibition at 250 µg/mL: Homo sapiens, PBMC; for inhibition at 10 µg/mL: 10 μg/ml; for inhibition at 50 µg/mL: 50 μg/ml; for inhibition at 100 µg/mL: 100 μg/ml; for inhibition at 250 µg/mL: 250 μg/ml. On the procedure: Primary cell assays. Primary human peripheral blood mononuclear cells (PBMCS) were isolated as described by Ojwang et al. (114). Isolated monocytes were added to 24-well cluster plates (Costar, Cambridge, Mass.) at a concentration of 1×10^5 viable cells per well. Culture medium or test material dilutions in culture medium were added to the wells, the plates were then incubated at 37° C. for one hour. […] The plates were incubated an additional 4, 24 or 48 hours. The supernatant fluids were then harvested and centrifuged to pellet cells or cellular debris, and the supernatant fluids were stored at -70° C. until they were assayed for the presence of TNFα using a commercially available ELISA kit, such as that described in Example 46.

The nature of data set [3]: Viability of PBMCs exposed to test compound. The conditions noted are these: human, pbmcs, 48 h, +LPS, read-out: % Viable Cells.
A further data set has as its system PBMCs. Put plainly: Viability of PBMCs exposed to test compound. The conditions noted are these: 48 hours of exposure.
The subject of another data set is MRC-5 cells. The data set is described as follows: Cytotoxicity on growing MRC-5 cells (MTS).
[4] abbreviates: lowest concentration tested, 6 h post-LPS (FIG. 4).

≈ marks a conversion by molar mass, not a printed value. Entries after “also recorded” stand apart in the source; their conditions may differ. Where two headings read alike, the source gives them in different places.

Turning to `CCCCCn1cpc2ncnc(N)c21` (centres unmarked) [T70254, 7-Amino-1-(n-pentyl)-1,3-azaphospholo[4,5-d]pyrimidine], in the data set on TNFα [1] (6 hours, LPS (FIG. 2)), the “inhibition of TNFα production by T70254” value is recorded as “significantly inhibits TNFα production in THP-1 cells”. In the data set on TNFα [1], the inhibition at 10 µg/mL is about 30%, the inhibition at 100 µg/mL was about 55% and the IC50 worked out at 19.4 µg/mL (≈ 87.3 µM).
On to `Nc1ncnc2pc[nH]c12` (centres unmarked) [T70241, 7-amino-1H-1,3-azaphospholo[4,5-d]pyrimidine], for which the “levels of cell associated and free TNFα” value in the data set on TNFα [1] (6 hours post-LPS (FIG. 4)) was “able to reduce the levels of both cell associated and free TNFα”. Besides, the inhibition at 10 µg/mL in the data set on TNFα [1] was about 25%; in the data set with TNFα [2] (4 h), 0%; in the data set with TNFα [2] (24 h), -3%; with TNFα [2] (48 h) it was -9%. In addition, the inhibition at 100 µg/mL in the data set on TNFα [1] is about 90%; with TNFα [2] (4 h) it was 76%; in the data set on TNFα [2] (24 h) it was 81%; with TNFα [2] (48 h), 79%. The IC50 in the data set on TNFα [1] was found to be 23.9 µg/mL (≈ 157 µM). Further, the “TNFα level on late addition” value with TNFα [1] (compound added 5 hours post-LPS, read at 6 h (FIG. 3)) is “significantly reduce the level of TNFα in the culture medium; also recorded: sharply inhibit the amount of cytokine in the culture”. The “inhibition of TNFα production compared to control HWA-3138” value with TNFα [1] (concentrations as little as 10 μg/mL (FIG. 2)) is on record as “inhibits TNFα production in these cells better than the control xanthine compound”. In addition, the “reduction of extracellular TNFα” value in the data set with TNFα [1] (setting [4]) is “about 50%”. Further, the “reduction of membrane-bound (intracellular) TNFα” value in the data set on TNFα [1] (setting [4]) is about 30%. In addition, the “long-term inhibition of TNFα production after a single treatment” value in the data set with TNFα [1] (pre-incubated, washed, drug free medium (FIG. 5)) was “in a dose dependent fashion for 72 hours after the drug removal”. The “effect on THP-1 growth” value in the data set on THP-1 cells (higher concentrations) is recorded as “stimulates THP-1 growth at higher concentrations”. In addition, the “toxic effect on THP-1 cells” value in the data set with THP-1 cells (up to 1 mg/mL) is recorded as “no toxic effect on the THP-1 cells”. The “TNFα production in PBMCs” value in the data set on TNFα [2] (48 hours post-LPS induction) is “significantly reduce the levels of TNFα production in the PBMCs”. Also, the values for the inhibition at 50 µg/mL in the data set with TNFα [2] (4 h), in the data set with TNFα [2] (24 h) and in the data set on TNFα [2] (48 h) were 50%, 58% and 51%, respectively. Besides, the inhibition at 250 µg/mL in the data set on TNFα [2] (4 h) was found to be 76%; in the data set on TNFα [2] (24 h), 84%; with TNFα [2] (48 h) it was 82%. For the same compound, the viability at 48 h turned out to be 104% in data set [3] (10 μg/ml), 83% in data set [3] (50 μg/ml), 94% in data set [3] (100 μg/ml) and 88% in data set [3] (250 μg/ml). The “PBMC viability / toxicity” value in the data set with PBMCs is listed as “cell viability was not affected; also recorded: minimal”. In the data set on MRC-5 cells (FIG. 9A, four day period), the “toxic effect on growing MRC-5 cells” value was “slight toxic effect on growing MRC-5 cells”. For the same compound, in the data set on MRC-5 cells (Table 4, 50% inhibition of logphase growing cells, 5760 min), the “TC50 Growing MRC-5” value is over 50 µg/mL.

The values are drawn from patent US6069132A, “Phosphazole compounds” (priority 1997, dated 2000).
